{
  "source": "paper PMC11052825",
  "about": "(Clinical Pharmacokinetics, 2024)",
  "key": {"[1]": {"experiment": "Risk categorization of statins for coadministration with encorafenib", "details": "qualitative, from metabolic and transporter profile"}, "[2]": {"system": "CYP2B6", "details": "in vitro; cited from earlier work"}, "[3]": {"system": "OATP1B1, OATP1B3, and BCRP", "assay_type": "in vivo, Human", "details": "phase 1 study and exploratory CP-I analysis"}, "[4]": {"system": "CYP3A4", "details": "cited from earlier work"}, "[5]": {"system": "BCRP", "details": "in vitro, weak inhibitor; cited from earlier work"}, "[6]": {"system": "CYP2B6", "details": "in vitro hepatocyte assay, clinically relevant plasma concentrations; cited from earlier work"}, "[7]": {"details": "cited from earlier work"}, "[8]": {"system": "CYP2C19", "details": "cited from earlier work"}, "[9]": {"system": "CYP2D6", "details": "cited from earlier work"}, "[10]": {"experiment": "Phase 1 DDI study: plasma PK of encorafenib", "assay_type": "in vivo", "details": "human, oral, GM (CV%); for AUC(0-t): AUClast"}, "[11]": {"system": "OATP1B1/3", "details": "in vitro, potent inhibitor; cited from earlier work"}, "[12]": {"system": "CYP2B6", "assay_type": "in vivo, Human"}, "[13]": {"system": "OATP1B1", "details": "strong inhibitor of OATP1B1; cited from earlier work"}, "[14]": {"system": "CYP2B6 and CYP3A4", "details": "strong inducer of CYP2B6 and CYP3A4; cited from earlier work"}, "[15]": {"system": "BCRP", "details": "cited from earlier work"}, "[16]": {"assay_type": "in vivo, Human", "details": "single oral administrations on days −7, 1 and 14"}, "[17]": {"target": "T1, OATP1B1 (Homo sapiens, UniProt Q9Y6L6)", "T1 sequence (Q9Y6L6 1-691)": "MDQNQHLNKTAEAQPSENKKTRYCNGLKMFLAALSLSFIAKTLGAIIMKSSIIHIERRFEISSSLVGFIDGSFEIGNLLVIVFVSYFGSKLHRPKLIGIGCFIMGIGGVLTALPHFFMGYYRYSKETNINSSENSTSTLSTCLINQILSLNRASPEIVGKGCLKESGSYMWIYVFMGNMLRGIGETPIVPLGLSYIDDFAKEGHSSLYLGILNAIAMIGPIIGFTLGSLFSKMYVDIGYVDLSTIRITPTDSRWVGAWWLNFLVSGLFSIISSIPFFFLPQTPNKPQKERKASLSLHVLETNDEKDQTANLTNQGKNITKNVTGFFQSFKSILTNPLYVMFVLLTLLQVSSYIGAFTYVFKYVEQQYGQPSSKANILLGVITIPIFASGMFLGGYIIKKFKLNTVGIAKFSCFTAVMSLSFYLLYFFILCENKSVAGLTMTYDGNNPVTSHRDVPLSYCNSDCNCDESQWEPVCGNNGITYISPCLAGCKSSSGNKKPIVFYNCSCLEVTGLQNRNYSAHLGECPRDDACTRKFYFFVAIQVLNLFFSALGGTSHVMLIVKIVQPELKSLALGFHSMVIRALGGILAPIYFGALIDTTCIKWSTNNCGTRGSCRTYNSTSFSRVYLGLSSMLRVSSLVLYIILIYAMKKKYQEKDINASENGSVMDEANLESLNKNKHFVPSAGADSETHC", "experiment": "Maximum fold change of plasma CP-I in phase 3 safety lead-in participants", "assay_type": "in vivo", "details": "SLI phase, encorafenib 300 mg QD + cetuximab"}},
  "note": "Where two headings read alike, the source gives them in different places.",
  "data": [
    {"compound": "O=C(O)C[C@H](O)C[C@H](O)/C=C/c1c(C2CC2)nc2ccccc2c1-c1ccc(F)cc1", "note": "[Pitavastatin]", "values": [
      {"measurement": "Risk category following coadministration with encorafenib", "setting": "[1]", "result": "highest risk of increased exposure"}
    ]},
    {"compound": "COC(=O)N[C@@H](C)CNc1nccc(-c2cn(C(C)C)nc2-c2cc(Cl)cc(NS(C)(=O)=O)c2F)n1", "note": "[Encorafenib, encorafenib]", "values": [
      {"measurement": "Unbound R1 value (reversible inhibition)", "setting": "[2]", "result": 3.1},
      {"measurement": "Clinical BCRP inhibition (conclusion)", "setting": "[3]", "result": "likely an inhibitor of BCRP"},
      {"measurement": "Clinical OATP1B1/3 inhibition (conclusion)", "setting": "[3]", "result": "may also inhibit OATP1B1/3 to a lesser extent"},
      {"measurement": "Share of metabolism", "setting": "[4]", "result": 83, "unit": "%"},
      {"measurement": "R values (inhibition)", "setting": "[5]", "result": "≥ 1.1"},
      {"measurement": "R3 values (induction)", "setting": "[6]", "result": "< 0.9"},
      {"measurement": "Steady-state exposure lower compared with exposure following a single dose", "setting": "[7]; autoinduction of CYP3A4", "result": "approximately 50%"},
      {"measurement": "Estimated bioavailability", "setting": "[7]; oral, no reference given", "result": "at least 86%"},
      {"measurement": "Time to peak concentrations", "setting": "[7]; oral, no reference given", "result": "≤ 2", "unit": "h"},
      {"measurement": "Share of metabolism", "setting": "[8]", "result": 16, "unit": "%"},
      {"measurement": "Share of metabolism", "setting": "[9]", "result": 1, "unit": "%"},
      {"measurement": "AUC(0-t)", "setting": "[10]; encorafenib single dose (day 1)", "result": 25900, "unit": "ng·h/mL"},
      {"measurement": "AUC(0-t)", "setting": "[10]; encorafenib steady state (day 14)", "result": 13100, "unit": "ng·h/mL"},
      {"measurement": "Cmax", "setting": "[10]; Cmax, encorafenib steady state (day 14), n=10", "result": 2940, "unit": "ng/mL"},
      {"measurement": "R values (inhibition)", "setting": "[11]", "result": "≥ 1.1"},
      {"measurement": "Clinical CYP2B6 inhibition (conclusion)", "setting": "[12]; bupropion probe, after a single dose of encorafenib", "result": "does not act as an inhibitor of CYP2B6"},
      {"measurement": "Clinical CYP2B6 induction (conclusion)", "setting": "[12]; bupropion probe, steady-state encorafenib", "result": "likely not a clinically relevant inducer of CYP2B6"}
    ]},
    {"compound": "CC(NC(C)(C)C)C(=O)c1cccc(Cl)c1", "note": "(centres unmarked) [Bupropion, bupropion]", "values": [
      {"measurement": "Decrease in AUClast compared with administration on its own", "setting": "[12]; following repeated doses of encorafenib and binimetinib", "result": 26, "unit": "%"},
      {"measurement": "Decrease in AUClast compared with administration on its own", "setting": "[12]; following single dose of encorafenib and binimetinib", "result": 23, "unit": "%"}
    ]},
    {"compound": "C[C@H]1NC(C)(C)CO[C@]1(O)c1cccc(Cl)c1", "note": "[Hydroxybupropion, hydroxybupropion]", "values": [
      {"measurement": "Change in AUClast", "setting": "[12]; following a single dose of encorafenib and binimetinib", "result": "not changed"},
      {"measurement": "Increase in AUClast", "setting": "[12]; with repeated doses of encorafenib and binimetinib", "result": 48, "unit": "%"}
    ]},
    {"compound": "CO[C@H]1/C=C/O[C@@]2(C)Oc3c(C)c(O)c4c(O)c(c(/C=N/N5CCN(C)CC5)c(O)c4c3C2=O)NC(=O)/C(C)=C\\C=C\\[C@H](C)[C@H](O)[C@@H](C)[C@@H](O)[C@@H](C)[C@H](OC(C)=O)[C@@H]1C", "note": "[rifampin]", "values": [
      {"measurement": "Plasma CP-I maximum fold-change", "setting": "[13]", "result": "approximately 6 fold"}
    ]},
    {"compound": "CC[C@H](C)C(=O)O[C@H]1C[C@H](O)C=C2C=C[C@H](C)[C@H](CC[C@@H](O)C[C@@H](O)CC(=O)O)[C@H]21", "note": "[Pravastatin]", "values": [
      {"measurement": "Risk category following coadministration with encorafenib", "setting": "[1]", "result": "least likely to be affected"}
    ]},
    {"compound": "CC[C@H](C)C(=O)O[C@H]1C[C@@H](C)C=C2C=C[C@H](C)[C@H](CC[C@@H]3C[C@@H](O)CC(=O)O3)[C@H]21", "note": "[Lovastatin]", "values": [
      {"measurement": "Risk category following coadministration with encorafenib", "setting": "[1]", "result": "at risk of loss of efficacy"}
    ]},
    {"compound": "NC(=O)N1c2ccccc2C=Cc2ccccc21", "note": "[carbamazepine]", "values": [
      {"measurement": "Effect of treatment on bupropion and hydroxybupropion", "setting": "[14]", "result": "substantial decrease in bupropion and increase in hydroxybupropion"}
    ]},
    {"compound": "CC(C)c1nc(N(C)S(C)(=O)=O)nc(-c2ccc(F)cc2)c1/C=C/[C@@H](O)C[C@@H](O)CC(=O)O", "note": "[Rosuvastatin, rosuvastatin]", "values": [
      {"measurement": "Theoretical maximum fold-change in exposure based on BCRP alone", "setting": "[15]", "result": 2, "unit": "fold"},
      {"measurement": "Risk category following coadministration with encorafenib", "setting": "[1]", "result": "highest risk of increased exposure"},
      {"measurement": "Tmax", "setting": "[16]", "result": 2, "unit": "h"}
    ]},
    {"compound": "Coproporphyrin I [CP-I]", "values": [
      {"measurement": "Observed maximum fold change in CP-I concentrations", "setting": "[17]; C1D1 (single dose), CRC patients", "result": 1.4, "unit": "fold"},
      {"measurement": "Observed maximum fold change in CP-I concentrations", "setting": "[17]; C2D1", "result": 1.2, "unit": "fold"}
    ]},
    {"compound": "CC(C)c1c(C(=O)Nc2ccccc2)c(-c2ccccc2)c(-c2ccc(F)cc2)n1CC[C@@H](O)C[C@@H](O)CC(=O)O", "note": "[Atorvastatin]", "values": [
      {"measurement": "Risk category following coadministration with encorafenib", "setting": "[1]", "result": "at risk of loss of efficacy"}
    ]}
  ]
}
